Measured values reported in patent US7790896B2, “RNA-selective probes for live cell imaging of nuclear structure and function” (New York University, priority 2006, dated 2010).

How the values were obtained:
[1] = system: RNA (Type VI from torula yeast); assay: In vitro solution assay (primary screening): fluorescent emission fold change upon binding to RNA; settings: dye 10 μM, RNA 500 μg/mL in TE buffer
Experimental: (§1) The fluorescence spectra data in the primary screening and selected dyes titration assay study was obtained by Gemini XS plate reader. RNA solution was prepared right before the assay experiments to avoid possible degradation and contamination. In the primary screening, 1 mg/mL RNA (type VI from torula yeast) buffer solution was used. Point scans were carried out first using five Ex/Em point sets ([…], 400/500, 450/550, 500/600, 550/650 nm). Spectra scans were then carried out for the selected dyes. Excitation wavelengths were set at 350 nm, 400 nm, 450 nm, 500 nm, and 550 nm and the emission wavelengths were scanned. RNA (16S- and 23S-ribosomal from E. coli) and DNA (salmon testes) titration experiments and quantum yield/extinction coefficient determination for the three best dyes were carried out by the plate reader as well. Excitation λmax obtained from F-2500 Hitachi Fluorophotometer was used. Absorbance wavelength was determined by SpectraMax Plus^384 absorbance plate reader. […] was chosen as standard and 480 nm was used as excitation wavelength in the scanning for quantum yield determination.
The screening strategy used in this study is illustrated in FIG. 2. Both in vitro RNA assays and live cell imaging methods were utilized in the primary screening of the dye library. Selective binding of the dye to RNA in solution was the primary criterion for selecting lead compounds for subsequent bioimaging studies, Herein, the library dyes' fluorescent emission intensity fold change upon binding to RNA was measured in solution. Dyes showing five-fold or higher emission changes in the presence of RNA were selected (Table 3). Note the dyes listed are identified by the building blocks I and II from Table 2. For example, A4 is the product made by reacting compound A from the list of Building block I and compound 4 from the list of Building block II.

[2] = Fluorescence spectrum in TE buffer of dyes selected from live cell imaging; assay type: physicochemical; settings: dye 10 μM in TE buffer
Experimental: as §1

[3] = system: Hela, A549, 3T3, and 3T3-L1; assay: Optimization of working concentration and imaging properties, live cell staining; assay type: cell-based, human, mouse; settings: 20, 10, 5 and 1 μM tested in four cell lines
Experimental: (§2) All cell staining imaging followed the same procedure. Generally, dyes in dry state were first dissolved in DMSO to obtain the stock solution. The stock solutions were then added directly to the cell culture wells to reach the desired concentration. Total DMSO was lower than 0.1%. After adding dyes, cells were incubated at 37° C. in 5% CO2 for 25 minutes. The medium was then removed and cells were rinsed with fresh medium twice. The cells were then imaged at ambient temperature in the medium. Exposure time was kept less than 5 seconds and adjusted to each dye.
In fluorescence microscopic imaging studies, it is always desirable to use as little dye as possible to stain organelles in order to maximize specificity and minimize dye toxicity and cell death. To determine the lowest working concentration of each dye, four different concentrations (20 μM, 10 μM, 5 μM, and 1 μM) were tested in four cell lines (Hela, A549, 3T3, and 3T3-L1). Dyes E36, E144, and F112 were imaged using FITC channel, and F22 was imaged using Cy3 channel. Generally, a quality fluorescence signal for each dye was produced using a concentration of 5 μM for E36, E144, and F22 and 10 μM for F112 (Table 5). It was interesting to observe that compound F22 was brighter in 3T3 cells, and a concentration of 1 μM was sufficient for a clear image (FIG. 4). […] Little photobleaching and no obvious cell morphology or viability changes were observed during the tests.

[4] = Fluorescent properties of free dye solution; assay type: physicochemical; settings: TE buffer pH 7.5, dye 5 μM
Experimental: as §1, with “determination. […] Generally, the λmax (nm) of emission was determined by scanning a fixed excitation first, and the μmax (nm) of excitation was determined by scanning emission spectrum with a fixed μem (nm). The detailed fluorescent properties of three selected dyes including; excitation/emission μmax, the quantum yield and extinction coefficient of both free dye solution and dye-RNA solution were assessed (Table 5).” for “determination.”

[5] = system: 3T3 fibroblast cells, 3T3-L1 adipocyte cells, Hela cells and A549 human lung carcinoma cells; assay: Secondary screening: live cell nuclear imaging properties in four cell lines; assay type: cell-based, mouse; settings: dye 25 μM
Experimental: as §2
The selected compounds from both primary screens (total 88) were resynthesized in large scale and purified. The compounds' live cell nuclear imaging properties were then tested by four cell lines, including two mouse cell lines: 3T3 fibroblast cells and 3T3-L1 adipocyte cells; and two human cancer cell lines: Hela cells and A549 human lung carcinoma cells. Herein, the final dye concentration in each test was decreased to 25 μM and all the experiments were repeated to establish reproducibility. […] Each of the three dyes contained at least one high affinity nucleic acid functional group (Trotta et al., “Solution Structure of DAPI Selectively Bound in the Minor Groove of a DNA T-T Mismatch-Containing Site: NMR and Molecular Dynamics Studies,” Nucleic Acids Res. 26:4706-4713 (1998); Loontiens et al., “Binding Characteristics of Hoechst 33258 with Calf Thymus DNA, Poly[d(A-T)], and d(CCGGAATTCCGG): Multiple Stoichiometries and Determination of Tight Binding with a Wide Spectrum of Site Affinities,” Biochem. 29:9029-9039 (1990); Zipper et al., “Investigations on DNA Intercalation and Surface Binding by SYBR Green I, Its Structure Determination and Methodological Implications,” Nucleic Acid Res. 32:E103 (2004); Glazer et al., “Stable Dye-DNA Intercalation Complexes as Reagents for High-Sensitivity Fluorescence Detection,” Nature 359:859-861 (1992), which are hereby incorporated by reference in their entirety) in building block II such as the terminal secondary amine for F22 and F112, the trimethoxy for E 144, and the indole for E36.

[6] = system: Fixed-permeabilized Hela cells; assay: DNase and RNase digest test; assay type: cell-based, human; settings: dye 50 μM, 2 hours
Experimental: Cells were first fixed using cold (−4° C.) pure methanol for 1 minute at ambient temperature. The cell membrane was then permeabilized by immersion in 1% Triton X-100 for 2 minutes. After rinsing with PBS twice, 100 μL of 50 μM dye PBS solution was added to three adjacent wells. Cells were then incubated in this dye PBS solution for 15 minutes in ambient temperature before being rinsed with clean PBS twice. 100 μL clean PBS (as control experiment), 30 μg/mL DNase (Sigma), or 25 μg/mL DNase-Free RNase (GE) was added to the three adjacent wells and incubated at 37° C. in 5% CO2 for 2 hours. Cells were rinsed with clean PBS twice before imaging. For each dye test, the fluorescent images were obtained using equal exposure time for control, DNase and RNase experiments. DAPI (10 μM) in PBS and SYTO®RNASelect (5 μM) in PBS solution were used for dual staining experiments. Duplicate experiments have been tested.
To further confirm that the compounds selectively bind RNA, a deoxyribonuclease (DNase) and ribonuclease (RNase) digest test was performed. In DNase digest, only the DNAs in the cell would be hydrolyzed. By contrast, in RNase digest, only RNAs would be hydrolyzed. Fixed-permeabilized Hela cells were used in this experiment and DAPI and SYTO®RNASelect were used as control dyes (FIG. 6). […] Still, its higher RNA-selective binding in live cell might be due to the complicated in vivo live cell environment, which may preferably direct this dye to nucleoli.

[7] = system: RNA (16S- and 23S-ribosomal from E. coli); assay: Fluorescent properties of dye-RNA solution; assay type: binding; settings: TE buffer pH 7.5, dye 5 μM, RNA 200 μg/mL
Experimental: as §1, with “determination. […] Generally, the λmax (nm) of emission was determined by scanning a fixed excitation first, and the μmax (nm) of excitation was determined by scanning emission spectrum with a fixed μem (nm). The detailed fluorescent properties of three selected dyes including; excitation/emission μmax, the quantum yield and extinction coefficient of both free dye solution and dye-RNA solution were assessed (Table 5).” for “determination.”

3T3 cells = assay: Phototoxicity test, MTS assay of irradiated cells; assay type: cell-based, mouse; settings: dye 5 μM (Hoechst 1 μM), irradiated 5 minutes, 24 hours incubation
Experimental: Dye DMSO stock solutions were diluted by fresh medium into working concentration (5 μM). Cells were cultured in 96-well plate for 12 hours before experiments. The cell medium was exchanged with dye medium solutions. Cells were then incubated in at 37° C., in 5% CO2 for 25 minutes before being irradiated by fluorescent light using the appropriate working filter (FITC for E36 and E144; Cy3 for F22) for 5 minutes. The plates were then incubated at 37° C. in 5% CO2 The cell viability was measured by MTS assay after 5 and 24 hours following the cytotoxicity measurement procedure. Duplicated experiments have been tested.
Phototoxicity is also an important factor in evaluating applicability of new fluorescent probes for live cell imaging. […] Nevertheless, it is desirable for the new imaging probes to be as non-phototoxic as possible. To investigate the phototoxicity of the present RNA-selective compounds, cellular viability of irradiated cells using MTS assay was assessed. Cells were incubated with dyes (E36, E144, and F22) in their working concentration (5 μM), and then irradiated with the appropriate filters using the fluorescent microscope (FITC for E36 and E144; Cy3 for F22). While light exposures used for imaging experiments are generally a few seconds long at most, cells were irradiated for 5 minutes for prolonged toxicity measurement. […]

Row | SPECTRUM EM [2] [nm] | SPECTRUM EX [2] [nm] | SMILES | further results
1 | 620 | 500 | COc1ccc2c(ccc(C=Cc3ccc(O)c(Br)c3)[n+]2C)c1 [Dye F158] | Em(nm) [1]: 620 nm; Ex(nm) [1]: 500 nm; Fold (fluorescent emission fold changes to RNA) [1]: 7
2 | 620 | 500 | COc1ccc2c(ccc(/C=C/c3ccc(N(C)C)cc3[N+](=O)[O-])[n+]2C)c1 [Dye F112] | Optimum Concentration for live cell imaging [3]: 10 µM; EM (emission λmax), Buffer [4]: 516 nm; EX (excitation λmax), Buffer [4]: 462 nm; Live cell nuclear imaging properties (basis of selection) [5]: selective nucleolar targeting, high fluorescence intensity, low photobleaching, and low cellular toxicity; Fluorescence after RNase digest ([6]; 25 μg/mL DNase-Free RNase): slight stain of the nucleus; Fluorescence after DNase digest ([6]; 30 μg/mL DNase): bright nucleolar staining remained; EM (emission λmax), RNA [7]: 514 nm; EX (excitation λmax), RNA [7]: 465 nm
3 | 490 | 400 | COc1ccc2c(ccc(C=Cc3cccc(Br)c3)[n+]2C)c1 [Dye F40] | –
4 | 460 | 350 | CCOc1cccc(C=Cc2ccc3cc(OC)ccc3[n+]2C)c1O [Dye F104] | –
5 | 460 | 350 | COc1ccc(Oc2cccc(C=Cc3ccc4cc(OC)ccc4[n+]3C)c2)cc1 [Dye F83] | –
6 | 650 | 500 | COc1ccc2c(ccc(/C=C/c3cc4c5c(c3O)CCCN5CCC4)[n+]2C)c1 [Dye F115] | –
7 | 470 | 350 | COc1ccc2c(ccc(/C=C/c3cccc(OC)c3OC(C)=O)[n+]2C)c1 [Dye F153] | –
8 | 460 | 350 | C[n+]1ccc(C=Cc2cccc(F)c2F)c2ccccc21 [Dye D84] | –
9 | 610 | 500 | COc1ccc2c(ccc(C=Cc3ccc(-c4cccs4)s3)[n+]2C)c1 [Dye F119] | –
10 | 560 | 450 | COc1ccc2c(ccc(C=Cc3ccc(C)c4ccccc34)[n+]2C)c1 [Dye F141] | –
11 | 460 | 350 | COc1ccc2c(ccc(C=Cc3ccccc3N(c3ccccc3)c3ccccc3)[n+]2C)c1 [Dye F138] | –
12 | – | – | CN1CCN(c2ccc3[nH]c(-c4ccc5[nH]c(-c6ccc(O)cc6)nc5c4)nc3c2)CC1 [Hoechst 33258] | Phototoxicity (3T3 cells): as toxic in 3T3 cells as F22
13 | 600 | 450 | C[n+]1c(/C=C/c2ccc(-c3cccs3)s2)ccc2ccccc21 [Dye E119] | –
14 | 490 | 400 | COc1ccc2c(ccc(C=Cc3cc(C(C)(C)C)ccc3O)[n+]2C)c1 [Dye F73] | –
15 | 480 | 400 | COc1ccc(/C=C/c2ccc3ccccc3[n+]2C)cc1 [Dye E63] | –
